Laboratory results taken from article PMC4200852, “Metabolism of Cryptic Peptides Derived from Neuropeptide FF Precursors: The Involvement of Insulin-Degrading Enzyme” (International Journal of Molecular Sciences, 2014).
“Also recorded” adds a separate entry of the source. Each block holds one molecule with its values, some of them ahead of it. Ends that are not written are not given here.

Key:
[1] = tested on: IDE, His-Tag, rat, recombinant; experiment: Proteolysis by insulin-degrading enzyme (IDE) in vitro, ESI-MS; type: in vitro ADME; details: 37 °C; for stability without IDE: no IDE
Excerpt: Other peaks assigned to the same fragments with the addition of Na^+ and K^+ are not labelled for simplicity.
IDE, His-Tag, rat, recombinant, from Spodoptera frugiperda, was purchased from Calbiochem (Milan, Italy), and its activity was verified by carrying out enzymatic digestion of insulin solutions according to the experimental procedure previously reported. Methanol (MeOH), formic acid (FA), Tris–HCl buffer, phosphate buffered saline (PBS) buffer and all chemicals used were purchased from Sigma–Aldrich. ZIPTIP C18 was purchased from Millipore (Milan, Italy). IDE enzymatic assays were carried out by incubating the enzyme solution (0.4 μM) at 37 °C with the peptide solution at the indicated concentration. After purification with ZIPTIP C18, 3 μL of the resulting solution were mixed with 50 μL of water and 50 μL of MeOH and injected into the mass spectrometer at 5 μL/min. ESI-MS experiments were performed by using a Finnigan LCQ DECA XP PLUS ion trap spectrometer operating in the positive ion mode and equipped with an orthogonal ESI source (Thermo Electron Corporation, Madison, WI, USA). Sample solutions were injected into the ion source using nitrogen as the drying gas. The mass spectrometer operated with a capillary voltage of 46 V and capillary a temperature of 250 °C, while the spray voltage was 4.3 kV. MS/MS data were interpreted by using the “Molecular Weight Calculator” software by Matthew Monroe freely available on the web.

[2] = biological target: T1, IDE (Rattus norvegicus, UniProt P35559); experiment: Surface Plasmon Resonance (SPR) OneStep binding to immobilized IDE; details: comparison among the peptides tested
T1 construct: His-Tag; purchased Calbiochem (Milan, Italy); host or cells: Spodoptera frugiperda
T1 sequence (P35559 1-1019): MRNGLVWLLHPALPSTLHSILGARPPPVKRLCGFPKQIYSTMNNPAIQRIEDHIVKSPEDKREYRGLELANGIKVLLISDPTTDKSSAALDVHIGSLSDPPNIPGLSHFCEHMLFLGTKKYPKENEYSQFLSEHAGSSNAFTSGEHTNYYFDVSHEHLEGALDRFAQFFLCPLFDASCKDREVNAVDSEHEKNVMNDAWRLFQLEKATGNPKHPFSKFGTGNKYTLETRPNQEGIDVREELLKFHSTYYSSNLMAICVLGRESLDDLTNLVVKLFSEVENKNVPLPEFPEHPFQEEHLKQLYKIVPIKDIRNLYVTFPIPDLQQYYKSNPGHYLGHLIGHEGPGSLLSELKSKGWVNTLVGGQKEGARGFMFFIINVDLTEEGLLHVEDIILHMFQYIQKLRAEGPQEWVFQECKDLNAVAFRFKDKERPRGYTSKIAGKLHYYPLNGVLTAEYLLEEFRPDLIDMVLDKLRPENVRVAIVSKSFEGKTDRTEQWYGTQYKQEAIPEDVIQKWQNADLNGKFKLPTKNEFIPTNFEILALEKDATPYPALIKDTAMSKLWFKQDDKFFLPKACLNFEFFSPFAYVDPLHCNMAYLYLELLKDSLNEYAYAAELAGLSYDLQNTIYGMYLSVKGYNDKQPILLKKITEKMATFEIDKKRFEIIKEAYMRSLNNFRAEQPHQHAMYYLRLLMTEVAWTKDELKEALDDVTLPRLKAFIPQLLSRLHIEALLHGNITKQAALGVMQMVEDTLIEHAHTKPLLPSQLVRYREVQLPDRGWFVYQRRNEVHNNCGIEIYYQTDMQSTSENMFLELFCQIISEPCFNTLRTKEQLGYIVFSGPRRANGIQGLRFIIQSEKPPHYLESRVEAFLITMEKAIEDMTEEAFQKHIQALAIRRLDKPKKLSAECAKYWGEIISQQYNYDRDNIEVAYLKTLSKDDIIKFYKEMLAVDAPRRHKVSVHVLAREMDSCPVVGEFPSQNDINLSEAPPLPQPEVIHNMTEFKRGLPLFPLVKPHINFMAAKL

[3] = NPPW 1–25 degradation in rat brain homogenate, with and without amastatin, ESI-MS; type: in vitro ADME; details: NPPW 1–25, rat brain homogenate
Description: We then tested the degradation of NPPW 1–25 peptide after incubation with rat brain homogenate, with and without the addition of amastatin. The latter was added to exclude the activity of aminopeptidases that are abundant in CNS. Such activity is responsible, among others, for the inactivation of opioid peptides, by truncation of the N-terminal Tyr, thus preventing binding to opioid receptors. […] In Table 2, the assignment of the peptide fragments detected is reported, while in Figure 4, a quantitative detection of their amounts at different incubation times is also shown. […] A further proof of this thesis could be obtained by applying selective IDE inhibitors that could become more easily available in the near future.
Brain cortices were rapidly removed from the male Wistar rats (150–200 g) and frozen immediately on dry ice. Tissues were kept at −80 °C until assayed. Brain was homogenized in an ice-cold 20 mM Tris–HCl buffer, pH 7.5, and diluted 1:6. […]
Enzyme assays were performed in 0.5-mL Eppendorf tubes. […] Five-microliter aliquots were taken from the incubation mixture, acidified by 30% MeOH with 0.1% FA and analyzed by ESI-MS (Bruker Esquire 3000) equipped with an autosampler (Famos, Thermo Scientific, earlier LC-Packings, Bremen, Germany). […] Quantitation of the enzyme activity was performed by integration of the peak area of formed products on the mass chromatogram. […]

[4] = tested on: IDE; details: statement without data or reference; cited from earlier work
[5] = NPNA metabolism by enzyme fractions separated from rat brain cortex homogenate, ESI-MS; type: in vitro ADME, male Wistar rats; details: for peptide fragment (sequence) formed: 120 min
Description: Brain cortices were rapidly removed from the male Wistar rats (150–200 g) and frozen immediately on dry ice. Tissues were kept at −80 °C until assayed. Brain was homogenized in an ice-cold 20 mM Tris–HCl buffer, pH 7.5, and diluted 1:6. The obtained homogenate was centrifuged twice at 14,000× g for 10 min at 4 °C.
Enzymes present in the rat brain homogenate were separated on the ion-exchange column Econo-Pac High Q (resin volume: 5 mL; Bio-Rad, Berkeley, CA, USA). Gradient separation was performed by the HPLC system Prominence LC-20 AD with a Photodiode Array Detector SPD-M20A (Shimadzu, Tokyo, Japan). The sample volume loaded on the column was 1 mL. The mobile phase consisted of 20 mM Tris–HCl buffer, pH 7.5, and a gradient of NaCl from 0 to 500 mM in 60 min was used. The total flow rate was 1 mL/min. One-point-five-milliliter fractions were collected during the separation and stored in −80 °C prior to further experiments.
Enzyme assays were performed in 0.5-mL Eppendorf tubes. Each homogenized brain fraction was diluted 1:5 with 20 mM Tris–HCl buffer, pH 7.5, and the reaction was initiated by the addition of 5 μg of NPNA and continued by mixing at 37 °C for 120 min (or for 300 min for preparing time course metabolic process). Five-microliter aliquots were taken from the incubation mixture, acidified by 30% MeOH with 0.1% FA and analyzed by ESI-MS (Bruker Esquire 3000) equipped with an autosampler (Famos, Thermo Scientific, earlier LC-Packings, Bremen, Germany). MS/MS analysis was performed to confirm the sequence of the released fragments. Quantitation of the enzyme activity was performed by integration of the peak area of formed products on the mass chromatogram. The samples were incubated with and without amastatin, an aminopeptidase inhibitor.

[6] = biological target: T2, Insulin-degrading enzyme (IDE), His-Tag, rat, recombinant (rat, UniProt P35559 1-1019); experiment: SPR; SensiQ Pioneer, OneStep approach; IDE immobilised by amine coupling on a COOH5 chip; peptides in solution (initial concentrations NPSA 74 uM, NPNA 74 uM, NPPW 150 uM); 0.01 M HEPES, 0.15 M NaCl, pH 7.4; fitted with Qdat, one binding site model for NPNA, two binding site model for NPSA and NPPW; details: both partners purified
T2 construct: Insulin-degrading enzyme, rat, recombinant with His-Tag; Bought protein; immobilised by amine coupling for SPR; source: bought: Calbiochem (recombinant, from Spodoptera frugiperda)
T2 sequence (looked up): T1 sequence (P35559 1-1019)

main cleavage site by IDE ([1]; 50 μM NPSA, 8 nM IDE, PBS, 2 h, ESI-MS): between Trp6 and Ser7 | fragments produced by IDE ([1]; 50 μM NPSA, 8 nM IDE, PBS, 2 h, ESI-MS, confirmed by MS/MS): SAWGSW; also recorded: SKEQLNPQA | main cleavage site by IDE ([1]; 50 μM NPSA, 8 nM IDE, PBS, 2 h, ESI-MS, listed as NPSA 1–15): Trp6–Ser7 | stability without IDE ([1]; 50 μM NPSA, PBS, 2 h, ESI-MS): only the full-length peptide is detected | time to complete degradation by IDE ([1]; (IDE) = 1/6000 (NPSA), disappearance of NPSA molecular peak, 50 μM NPSA, PBS, ESI-MS): two
Molecule: SAWGSWSKEQLNPQA [NPSA, SAWGSWSKEQLNPQA]

Molecule: PQRFGRNAWGPWSKEQLSPQAREFW [NPPW 1–25]
relative KD for both binding sites [2]: lowest KD values for both binding sites | major cleavage site [3]: Gln20–Ala21 | most abundant peptide fragment [3]: NPPW 1–20 | cleavage sites by IDE ([1]; 50 μM NPPW 1–25, 8 nM IDE, PBS, 8 h, ESI-MS): Gly5–Arg6, Ala8–Trp9, Gly10–Pro11 and Gln20–Ala21 | fragments produced by IDE ([1]; 50 μM NPPW 1–25, 8 nM IDE, PBS, 8 h, ESI-MS, MS/MS): WGPWSKEQLSPQ; also recorded: PQRFGRNAWGPWSKEQLSPQ at high abundance | major cleavage site by IDE ([1]; 50 μM NPPW 1–25, 8 nM IDE, PBS, ESI-MS): Gln20–Ala21 | stability without IDE ([1]; 50 μM NPPW 1–25, PBS, 8 h, ESI-MS): only the full-length peptide is detected | fragment generated only at longer incubation times with IDE ([1]; NPPW 1–25, more than 2 h, data not shown): PWSKEQLSPQAREFW | most abundant fragment produced by IDE ([1]; NPPW 1–25 with IDE, ESI-MS): PQRFGRNAWGPWSKEQLSPQ

Molecule: CC(C)C[C@@H](N)[C@H](O)C(=O)N[C@H](C(=O)N[C@H](C(=O)N[C@@H](CC(=O)O)C(=O)O)C(C)C)C(C)C [amastatin, reference compound]
inhibition of IDE [4]: not inhibited by amastatin

Molecule: NAWGPWSKEQLSPQA [NPNA, NAWGPWSKEQLSPQA]
time of highest amount of main product 1–11 ([5]; Fraction 23, 37 °C, pH 7.5): 4 h | peptide fragment (sequence) formed ([5]; Fraction 23 from Econo-Pac High Q, 5 μg NPNA, 20 mM Tris–HCl pH 7.5, 37 °C, ESI-MS): SPQA | main product, time course ([5]; Fraction 26, 37 °C, pH 7.5): SKEQL | peptide fragment (sequence) formed ([5]; Fraction 26 from Econo-Pac High Q, 5 μg NPNA, 20 mM Tris–HCl pH 7.5, 37 °C, ESI-MS): NAW and GPW and SKEQL and SPQA | cleavage position by brain cortex proteases ([5]; rat brain cortex fractions, 20 mM Tris–HCl pH 7.5, 37 °C, ESI-MS): mainly at the carboxyl side of the tryptophan and leucine; also recorded: mainly at the carboxyl side of tryptophan and leucine | time of highest product intensity ([5]; time course, rat brain cortex fractions, 5 μg NPNA, 20 mM Tris–HCl pH 7.5, 37 °C, ESI-MS): 4 h | degradation by IDE ([1]; NPNA incubated with IDE, up to 24 h, ESI-MS): not cleaved by IDE; also recorded: IDE is not able to degrade NPNA; also recorded: not degraded by IDE; also recorded: does not produce any NPNA fragments at all incubation times investigated

Kd [6]: 3.98 mM
B1: NPNA (NAWGPWSKEQLSPQA {1-15}) (peptide)
peptide: NAWGPWSKEQLSPQA
notes: NPNA, residues 85-99 of rat pro-NPFFA (neuropeptide FF precursor); also called NPNA 1-15; source: synthetic peptide (Fmoc solid phase synthesis, purified by HPLC)
